Data reported in patent US20240327364A1, “THERAPEUTIC TARGETING OF GPR68 TO INDUCE FERROPTOSIS” (University Of Maryland, Baltimore, priority 2023, published 2024).

Key:
[1] = biological target: GPR68 (Homo sapiens, UniProt Q15743); experiment: Acid-induced calcium response, GPR68-transfected HEK293 cells; assay type: cell-based
[2] = test system: NCI-H460; experiment: Cell Titer-Glo viability, Lung cancer, Large cell; assay type: cell-based
Protocol: OGM2 kills wide variety of cancer cell types. Cell sensitivity can be classified in to Very Sensitive (LC50<2 μM), Sensitive (LC50=2 to 10 μM), Mildly Sensitive (LC50>10 μM), and Refractory (no killing at 10 μM). The listed established cell were incubated with OGM2 at 2 μM or 10 μM for 72 hours under standard cell culture conditions, and relative cell number was assessed using Cell Titer-Glo Luminescent Cell Viability Assay (Promega™) following the manufacturer's instructions. Luminescence was determined using a Cytation 5 reader and Gen5 software package (BioTek™).
Cancer cells, which are very sensitive to killing by OGM2 (LCs <2 μM), with reported mRNA expression of GPR68 and the related proton sensing receptor GPR4. LC50's (concentrations causing 50% lethality) were determined using CellTiter-Glo (Promega™, G7570). Cells were plated in 12-well plates (CELLTREAT Scientific Products, 229112) in 1 ml of DMEM with high glucose, GlutaMAX, HEPES, or RPMI 1640 with Penicillin-Streptomycin (ThermoFisher™, 10564029, 11875119 and 15140122) and 10% FBS. Cells were incubated overnight at 37° C. in 5% CO2. Then 1 mL of fresh media was added with DMSO, OGM, or positive control (Erastin; APExBIO Technology, LLC, B1524) and cells incubated for 3 days. On the third day, all media was removed, cells were rinsed with 1×PBS, PBS was removed, and 200 μL of 1× Passive Lysis Buffer (Promega™, E1941) was added to each well. […]. Subsequently, 20 μL of lysate was added to 100 μL CellTiter-Glo™ reagent on a LUMITRAC 200 plate (Greiner™ bio-one, 82050-726). Plates were briefly spun down and read on a GloMax-Multi Detection System (Promega™).
The cells listed in the tables above were incubated with OGM2 at 2 μM or 10 μM for 72 hours under standard cell culture conditions, and relative cell number was assessed using Cell Titer-Glo Luminescent Cell Viability Assay (Promega™) following the manufacturer's instructions. Luminescence was determined using a Cytation 5 reader and Gen5 software package (BioTek™). RNA expression of GPR68 and GPR4 in the corresponding cancer cell lines are listed, according to the publicly available The Human Protein Atlas version 22.0 and Ensembl version 103.38 (see proteinatlas.org). The consensus normalized expression value (“nTPM”=normalize transcript per million) was calculated as the maximum nTPM value for each gene in the two data sources.

[3] = test system: LPS-induced ALI; experiment: LPS-induced acute lung injury; assay type: in vivo, mice; settings: LPS 0.7 mg/kg intratracheally; compounds intraperitoneally
Source text: PMN (polymorphonuclear neutrophils).

[4] = biological target: T1, CAMK2A (Homo sapiens, UniProt Q9UQM7); experiment: KinomeScan; assay type: binding; settings: read-out: % Control
T1 construct: purchased DiscoveRx (KinomeScan service)
T1 sequence (Q9UQM7 whole entry): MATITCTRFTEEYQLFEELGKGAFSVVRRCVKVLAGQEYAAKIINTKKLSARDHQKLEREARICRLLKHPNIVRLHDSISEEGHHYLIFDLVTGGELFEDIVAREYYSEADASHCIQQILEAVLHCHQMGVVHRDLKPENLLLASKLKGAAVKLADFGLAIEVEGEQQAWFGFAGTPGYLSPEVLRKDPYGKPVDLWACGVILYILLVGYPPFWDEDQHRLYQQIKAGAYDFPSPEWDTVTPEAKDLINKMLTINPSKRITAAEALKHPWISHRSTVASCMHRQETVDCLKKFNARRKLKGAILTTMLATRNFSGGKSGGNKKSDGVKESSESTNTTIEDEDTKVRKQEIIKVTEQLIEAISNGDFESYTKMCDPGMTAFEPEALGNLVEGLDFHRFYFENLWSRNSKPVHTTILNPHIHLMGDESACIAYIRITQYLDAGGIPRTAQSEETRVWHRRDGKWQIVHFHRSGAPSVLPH

[5] = biological target: T2, EGFR (Homo sapiens, UniProt P00533); experiment: KinomeScan; assay type: binding; settings: read-out: % Control
T2 construct: purchased DiscoveRx (Fremont, CA), KinomeScan service

[6] = biological target: T3, GABAB1b (Homo sapiens, UniProt Q9UBS5); experiment: GPCR Profiler; assay type: cell-based
T3 construct: host or cells: Chem-1 cells expressing Gα15
T3 sequence (Q9UBS5 1-844 isoform Q9UBS5-2): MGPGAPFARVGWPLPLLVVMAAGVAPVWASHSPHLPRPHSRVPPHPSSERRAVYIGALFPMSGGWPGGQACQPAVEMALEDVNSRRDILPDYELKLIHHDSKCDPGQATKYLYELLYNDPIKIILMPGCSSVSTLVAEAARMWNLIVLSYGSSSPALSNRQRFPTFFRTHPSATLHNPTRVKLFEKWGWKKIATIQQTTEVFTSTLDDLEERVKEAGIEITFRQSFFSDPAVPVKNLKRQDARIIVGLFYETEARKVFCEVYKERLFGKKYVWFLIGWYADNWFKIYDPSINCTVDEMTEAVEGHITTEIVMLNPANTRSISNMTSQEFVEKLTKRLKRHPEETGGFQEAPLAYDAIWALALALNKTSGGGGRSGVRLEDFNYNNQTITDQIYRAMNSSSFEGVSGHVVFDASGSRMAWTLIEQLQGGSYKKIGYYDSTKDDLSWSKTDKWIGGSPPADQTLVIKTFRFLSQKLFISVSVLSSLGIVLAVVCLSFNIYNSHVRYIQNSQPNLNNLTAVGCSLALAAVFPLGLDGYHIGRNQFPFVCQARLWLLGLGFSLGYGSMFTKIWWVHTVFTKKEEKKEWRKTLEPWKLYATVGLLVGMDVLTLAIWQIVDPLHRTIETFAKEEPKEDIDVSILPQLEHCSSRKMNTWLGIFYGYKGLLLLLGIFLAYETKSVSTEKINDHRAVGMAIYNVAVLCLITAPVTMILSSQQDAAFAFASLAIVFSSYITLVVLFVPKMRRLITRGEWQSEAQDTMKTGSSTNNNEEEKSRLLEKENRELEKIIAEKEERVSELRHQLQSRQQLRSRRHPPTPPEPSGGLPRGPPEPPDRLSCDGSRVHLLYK
T3 sequence (O75899 42-941 partner): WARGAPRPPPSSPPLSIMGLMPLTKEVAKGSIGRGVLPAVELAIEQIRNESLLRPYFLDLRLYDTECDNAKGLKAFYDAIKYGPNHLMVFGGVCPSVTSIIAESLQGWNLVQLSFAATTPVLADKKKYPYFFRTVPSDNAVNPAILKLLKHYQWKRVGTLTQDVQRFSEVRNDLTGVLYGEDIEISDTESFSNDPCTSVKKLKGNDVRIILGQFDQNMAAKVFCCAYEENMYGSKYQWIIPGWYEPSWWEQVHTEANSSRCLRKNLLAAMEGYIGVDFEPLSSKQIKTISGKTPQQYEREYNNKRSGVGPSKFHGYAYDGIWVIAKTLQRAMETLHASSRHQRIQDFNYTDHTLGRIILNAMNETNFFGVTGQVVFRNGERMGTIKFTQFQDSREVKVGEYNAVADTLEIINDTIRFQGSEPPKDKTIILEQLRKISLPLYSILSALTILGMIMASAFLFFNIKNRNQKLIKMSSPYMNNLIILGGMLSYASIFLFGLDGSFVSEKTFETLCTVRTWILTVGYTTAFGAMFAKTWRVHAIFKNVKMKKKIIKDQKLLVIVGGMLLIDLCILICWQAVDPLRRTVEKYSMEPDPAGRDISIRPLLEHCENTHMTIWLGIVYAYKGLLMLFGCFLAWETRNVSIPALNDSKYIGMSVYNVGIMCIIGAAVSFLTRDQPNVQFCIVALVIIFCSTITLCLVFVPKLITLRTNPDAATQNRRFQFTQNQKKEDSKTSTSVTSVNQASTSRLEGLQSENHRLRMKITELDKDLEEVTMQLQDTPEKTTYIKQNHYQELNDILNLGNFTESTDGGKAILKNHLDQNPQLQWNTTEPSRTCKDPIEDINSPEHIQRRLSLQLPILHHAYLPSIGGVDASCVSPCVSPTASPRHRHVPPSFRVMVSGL

[7] = test system: panel of 442 kinases; experiment: KinomeScan panel (summary); assay type: binding; settings: 10 uM
[8] = biological target: T4, ERK5 (Homo sapiens, UniProt Q13164); experiment: KinomeScan; assay type: binding; settings: read-out: % Control
T4 construct: purchased DiscoveRx (Fremont, CA)

[9] = biological target: T5, LTK (Homo sapiens, UniProt P29376); experiment: KinomeScan; assay type: binding; settings: read-out: % Control
T5 construct: purchased DiscoveRx

[10] = biological target: T6, RPS6KA5(Kin.Dom.1-N-terminal) (Homo sapiens, UniProt O75582); experiment: KinomeScan; assay type: binding; settings: read-out: % Control
T6 construct: RPS6KA5(Kin.Dom.1-N-terminal); purchased DiscoveRx (Fremont, CA)

[11] = biological target: T7, FER (Homo sapiens, UniProt P16591); experiment: KinomeScan; assay type: binding; settings: read-out: % Control
T7 construct: purchased DiscoveRx (Fremont, CA)

[12] = biological target: T8, PIK3CA(I800L) (Homo sapiens, UniProt P42336, I800L); experiment: KinomeScan; assay type: binding; settings: read-out: % Control
T8 construct: purchased DiscoveRx (Fremont, CA)

[13] = biological target: T9, LIMK1 (Homo sapiens, UniProt P53667); experiment: KinomeScan; assay type: binding; settings: read-out: % Control
T9 construct: purchased DiscoveRx

[14] = biological target: T10, PKAC-alpha (Homo sapiens, UniProt P17612); experiment: KinomeScan; assay type: binding; settings: read-out: % Control
T10 construct: purchased DiscoveRx (Fremont, CA)

[15] = biological target: T11, TRKC (Homo sapiens, UniProt Q16288); experiment: KinomeScan; assay type: binding; settings: read-out: % Control
T11 construct: purchased DiscoveRx (Fremont, CA)
T11 sequence (Q16288 32-839): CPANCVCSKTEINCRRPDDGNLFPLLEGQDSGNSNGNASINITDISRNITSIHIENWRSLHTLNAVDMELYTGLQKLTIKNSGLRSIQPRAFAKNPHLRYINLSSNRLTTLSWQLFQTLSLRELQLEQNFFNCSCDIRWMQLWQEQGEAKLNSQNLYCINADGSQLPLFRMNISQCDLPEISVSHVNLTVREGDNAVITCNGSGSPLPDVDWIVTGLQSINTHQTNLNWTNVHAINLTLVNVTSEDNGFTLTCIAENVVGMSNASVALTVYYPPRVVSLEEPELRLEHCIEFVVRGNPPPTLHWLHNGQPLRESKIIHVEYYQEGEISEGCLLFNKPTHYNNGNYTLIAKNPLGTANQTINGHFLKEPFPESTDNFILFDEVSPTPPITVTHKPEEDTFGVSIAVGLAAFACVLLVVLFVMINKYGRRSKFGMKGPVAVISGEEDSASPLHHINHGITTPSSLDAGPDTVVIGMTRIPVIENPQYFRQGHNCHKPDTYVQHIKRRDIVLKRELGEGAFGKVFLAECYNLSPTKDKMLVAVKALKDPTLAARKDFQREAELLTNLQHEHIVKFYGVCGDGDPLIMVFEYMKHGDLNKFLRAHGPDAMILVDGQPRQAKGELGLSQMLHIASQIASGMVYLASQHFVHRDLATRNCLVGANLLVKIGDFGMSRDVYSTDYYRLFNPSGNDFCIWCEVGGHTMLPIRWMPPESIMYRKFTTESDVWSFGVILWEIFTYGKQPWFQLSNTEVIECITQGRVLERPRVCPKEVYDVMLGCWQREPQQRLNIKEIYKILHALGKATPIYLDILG

[16] = biological target: T12, SNRK (Homo sapiens, UniProt Q9NRH2); experiment: KinomeScan; assay type: binding; settings: read-out: % Control
T12 construct: purchased DiscoveRx (Fremont, CA)

[17] = biological target: T13, PFTAIRE2 (Homo sapiens, UniProt Q96Q40); experiment: KinomeScan; assay type: binding; settings: read-out: % Control
T13 construct: purchased DiscoveRx (Fremont, CA)

[18] = biological target: T14, IP1 (Homo sapiens, UniProt P43119); experiment: GPCR Profiler; assay type: cell-based
T14 construct: host or cells: Chem-1 cells with promiscuous Gα15
T14 sequence (P43119 whole entry): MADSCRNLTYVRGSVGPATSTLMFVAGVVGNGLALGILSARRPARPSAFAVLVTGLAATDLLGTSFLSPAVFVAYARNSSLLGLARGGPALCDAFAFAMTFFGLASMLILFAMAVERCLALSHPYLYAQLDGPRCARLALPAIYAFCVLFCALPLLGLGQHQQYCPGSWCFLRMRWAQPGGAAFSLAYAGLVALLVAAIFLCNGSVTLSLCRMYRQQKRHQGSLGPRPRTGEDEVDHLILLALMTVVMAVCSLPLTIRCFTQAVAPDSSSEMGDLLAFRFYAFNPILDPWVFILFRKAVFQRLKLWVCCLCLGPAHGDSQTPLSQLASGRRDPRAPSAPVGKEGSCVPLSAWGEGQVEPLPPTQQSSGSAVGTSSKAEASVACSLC

[19] = biological target: T15, JNK3 (Homo sapiens, UniProt P53779); experiment: KinomeScan; assay type: binding; settings: read-out: % Control
T15 construct: purchased DiscoveRx
T15 sequence (P53779 whole entry): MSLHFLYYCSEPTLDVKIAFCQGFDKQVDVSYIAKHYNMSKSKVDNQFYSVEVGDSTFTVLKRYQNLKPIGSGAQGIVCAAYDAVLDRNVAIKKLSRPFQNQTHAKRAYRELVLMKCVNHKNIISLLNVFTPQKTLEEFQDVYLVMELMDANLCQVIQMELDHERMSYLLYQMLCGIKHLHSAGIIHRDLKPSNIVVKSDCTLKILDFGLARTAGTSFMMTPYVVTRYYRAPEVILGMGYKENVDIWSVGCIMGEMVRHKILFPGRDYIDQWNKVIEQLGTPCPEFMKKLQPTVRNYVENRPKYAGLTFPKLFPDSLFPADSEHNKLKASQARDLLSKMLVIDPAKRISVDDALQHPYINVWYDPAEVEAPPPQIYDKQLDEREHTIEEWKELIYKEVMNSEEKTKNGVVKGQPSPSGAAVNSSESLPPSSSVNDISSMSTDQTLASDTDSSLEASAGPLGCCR

[20] = biological target: T16, ADRB2 (Homo sapiens, UniProt P07550); experiment: GPCR Profiler; assay type: cell-based
T16 construct: host or cells: Chem-1 cells with promiscuous Gα15
T16 sequence (P07550 whole entry, species assumed): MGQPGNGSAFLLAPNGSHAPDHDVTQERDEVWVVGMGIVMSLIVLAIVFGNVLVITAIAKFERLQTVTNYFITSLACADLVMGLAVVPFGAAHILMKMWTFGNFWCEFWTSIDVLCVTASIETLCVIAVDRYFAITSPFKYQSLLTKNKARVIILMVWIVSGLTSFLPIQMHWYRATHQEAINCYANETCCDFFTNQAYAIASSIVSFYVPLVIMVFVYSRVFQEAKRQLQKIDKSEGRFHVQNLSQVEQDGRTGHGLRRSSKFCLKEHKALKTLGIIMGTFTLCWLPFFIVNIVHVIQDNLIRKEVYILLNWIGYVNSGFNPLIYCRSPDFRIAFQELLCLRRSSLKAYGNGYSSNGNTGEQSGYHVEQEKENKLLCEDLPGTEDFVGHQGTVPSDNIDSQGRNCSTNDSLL

[21] = biological target: T17, FLT3(R834Q) (Homo sapiens, UniProt P36888, R834Q); experiment: KinomeScan; assay type: binding; settings: read-out: % Control
T17 construct: purchased DiscoveRx (Fremont, CA)

[22] = biological target: T18, IRAK1 (Homo sapiens, UniProt P51617); experiment: KinomeScan; assay type: binding; settings: read-out: % Control
T18 construct: purchased DiscoveRx (Fremont, CA)
T18 sequence (P51617 whole entry): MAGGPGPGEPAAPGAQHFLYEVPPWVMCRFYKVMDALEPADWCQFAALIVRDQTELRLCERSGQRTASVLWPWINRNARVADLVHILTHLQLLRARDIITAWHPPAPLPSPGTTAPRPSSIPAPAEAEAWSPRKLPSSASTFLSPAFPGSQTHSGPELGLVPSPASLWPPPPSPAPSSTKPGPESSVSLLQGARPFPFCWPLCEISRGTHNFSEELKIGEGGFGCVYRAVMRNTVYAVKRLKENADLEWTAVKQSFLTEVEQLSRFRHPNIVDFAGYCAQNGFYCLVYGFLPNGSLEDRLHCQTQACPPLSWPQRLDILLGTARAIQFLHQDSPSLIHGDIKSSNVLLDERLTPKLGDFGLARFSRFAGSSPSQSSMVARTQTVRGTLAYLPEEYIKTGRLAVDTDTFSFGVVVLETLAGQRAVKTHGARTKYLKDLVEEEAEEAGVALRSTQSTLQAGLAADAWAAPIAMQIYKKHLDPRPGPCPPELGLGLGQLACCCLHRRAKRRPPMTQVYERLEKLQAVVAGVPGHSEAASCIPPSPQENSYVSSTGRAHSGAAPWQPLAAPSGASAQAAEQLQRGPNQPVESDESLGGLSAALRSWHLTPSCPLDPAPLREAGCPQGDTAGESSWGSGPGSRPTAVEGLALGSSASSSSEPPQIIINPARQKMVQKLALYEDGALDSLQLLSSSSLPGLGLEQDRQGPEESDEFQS

[23] = biological target: T19, FGFR1 (Homo sapiens, UniProt P11362); experiment: KinomeScan; assay type: binding; settings: read-out: % Control
T19 construct: purchased DiscoveRx (Fremont, CA)

How did the “calcium response to extracellular acidification” value [1] turn out when `CCc1ccc2c(c1)C1(NN=C(c3ccccc3)S1)C(=O)N2` (centres unmarked) [OGM2] was run?
Its value is “inhibited”.

And the Class [2]?
The Class was “Sensitive (Sensitive (LC50=2 to 10 μM))”.

What about the “% Survival 2 μM OGM” value ([2]; 72 hours) of the same molecule?
The value was 51.7%.

What about the “% Survival 10 μM OGM” value ([2]; 72 hours) of the same molecule?
The value was 26.5%.

What about the CC50 ([2]; Homo sapiens, NCI-H460, 72 hours, read-out: LC50 (the source's name)) of the same molecule?
Its CC50 is 2 to 10 µM.

And the “inflammatory cell infiltrates in BAL” value [3]?
Its value is “reduced inflammatory cell infiltrates in BAL”.

For `CCc1ccc2c(c1)C1(NN=C(c3cccc4ccccc34)S1)C(=O)N2` (centres unmarked) [OGM1, 5-ethyl-5′-naphthalen-1-ylspiro[1H-indole-3,2′-3H-1,3,4-thiadiazole]-2-one], which remaining binding at 10 µM [4] is on record?
Its remaining binding at 10 µM is 75%.

What about the remaining binding at 10 µM [5] of the same molecule?
Its remaining binding at 10 µM is 100%.

And the Antagonism ([6]; 10 uM)?
Its Antagonism is 0.1.

What about the Agonism ([6]; 12.5 uM) of the same molecule?
Its Agonism is 0.6.

And the “interaction with kinase domains” value [7]?
The value was “did not physically interact with the kinase domain of any kinase”.

What about the remaining binding at 10 µM [8] of the same molecule?
The remaining binding at 10 µM was 89%.

And the remaining binding at 10 µM [9]?
Its remaining binding at 10 µM is 100%.

And the remaining binding at 10 µM [10]?
The remaining binding at 10 µM was 100%.

And the remaining binding at 10 µM [11]?
Its remaining binding at 10 µM is 100%.

What about the remaining binding at 10 µM [12] of the same molecule?
The remaining binding at 10 µM was 100%.

And the remaining binding at 10 µM [13]?
The remaining binding at 10 µM was 100%.

What about the remaining binding at 10 µM [14] of the same molecule?
Its remaining binding at 10 µM is 95%.

And the remaining binding at 10 µM [15]?
The remaining binding at 10 µM was 62%.

What about the remaining binding at 10 µM [16] of the same molecule?
Its remaining binding at 10 µM is 100%.

What about the remaining binding at 10 µM [17] of the same molecule?
Its remaining binding at 10 µM is 93%.

And the Antagonism ([18]; 10 uM)?
Its Antagonism is −2.

What about the Agonism ([18]; 12.5 uM) of the same molecule?
Its Agonism is −0.5.

What about the remaining binding at 10 µM [19] of the same molecule?
The remaining binding at 10 µM was 82%.

What about the Antagonism ([20]; 10 uM) of the same molecule?
The Antagonism was −9.5.

And the Agonism ([20]; 12.5 uM)?
The Agonism was −0.1.

What about the remaining binding at 10 µM [21] of the same molecule?
The remaining binding at 10 µM was 100%.

And the remaining binding at 10 µM [22]?
The remaining binding at 10 µM was 100%.

And the remaining binding at 10 µM [23]?
The remaining binding at 10 µM was 100%.
